Data as given in US20200237731A1, “USE OF CLOXACILLIN TO INHIBIT/PREVENT BIOFILM FORMATION” (priority 2017, published 2020).
Entries after “also recorded” stand apart in the source; their conditions may differ. Read-outs that look alike come from different tables or passages of the source.

Experiments:
[1] = system: Staphylococcus aureus strain S14; assay: Infected skin wound healing model in mice; assay type: in vivo, C57BL/6 mice
Experimental: The objective of these trials was to test the efficacy of cloxacillin, at selected doses, in an in vivo model of mouse skin wound infection with strains of Staphylococcus aureus. The in vivo efficacy of specific doses of cloxacillin, derived from the in vitro MIC and MICb doses, was determined by measuring bacterial load (established as a biofilm) at 12 h, Day 5 and Day 11 post-infection, and by measuring wound healing at Day 5 and Day 11 post-infection (as a wound healing score).
In this example, the mice used were 7-week-old female C57BL/6 mice weighing between 20 and 22 g from Janvier Labs, Le Genest St Isle, 53941 St Berthevin, France. The number of mice used was 5 per condition tested.
The concentration of S. aureus was adjusted in PBS to give a concentration of 10^6 CFU in 10 μL (10^8 CFU/mL). The mice, shaved on their backs, were anaesthetized with isoflurane gas and then 4 incisions were made on each side of the spine, defining 2 areas. In each mouse, only one of the areas was infected by subcutaneous injection of 10 μL of S. aureus solution, with the contralateral area serving as the uninfected control.
To test the effect of cloxacillin, 3 groups of mice received, 30 minutes pre-infection, a “preventive” treatment of 5 mg/kg cloxacillin (for mice subsequently receiving cloxacillin at 3 mg/kg) or 30 mg/kg cloxacillin (for mice subsequently receiving cloxacillin at 15 mg/kg) or sterile saline intraperitoneally. These doses were determined in an in-house PK/PD study.
The mice were then treated every two hours after the first preventive treatment for 10 hours with cloxacillin at 3 mg/kg or 15 mg/kg or saline. These doses were pre-determined to simulate blood levels between the planktonic MIC and the biofilm MIC of strain S14.
Three groups of mice were used, a first group being sacrificed at t+12 h after infection to measure the bacterial load. A second group was treated identically and sacrificed 5 days after infection and a third group, treated identically, was sacrificed 11 days after infection. Each day, a healing score is established on the animals, and on the sacrificed animals, a count of the bacteria installed is made (at D5 and D11). The score is established as follows, assigning a value between 0 and 3.
The skin at the wounds is cut, rinsed in PBS to remove non-adhered bacteria and then the tissue is homogenized in Precellys tubes using glass beads. The resulting homogenate was diluted serially, and different dilutions were spread on TSA media plates and cultured overnight at 37° C. Colonies (CFU) were quantified for each dilution and the bacterial load at the wound site was determined.

[2] = system: Staphylococcus aureus strains S14 and S39; assay: Implanted subcutaneous catheter infection model in mice; assay type: in vivo; conditions: 12 h, 24 h and 30 h
[3] = system: Staphylococcus aureus strains S14 and S39; assay: Confocal microscopy of bacterial adhesion to polystyrene well bottom; assay type: cell-based; conditions: for effect on adhesion / biofilm formation / effect on bacterial adhesion: 4 h; for effect on bacterial adhesion: strain S39
Experimental: Six-well polystyrene microplates of the same nature and with exactly the same properties as the microplates used in Example 1 (Antibiofilmogram®), i.e. Costar 6-well microplates, product code 3736. The 6-well microplates were used to obtain a sufficient surface area of biofilm formation for confocal microscopy observation. The concentrations corresponding to the MIC and MICb of the strains were tested. At the same time, controls in the absence of antibiotics, strains S14 and S39 were performed. After incubation for 4 h at 37° C. (similar to the conditions used in Example 1 (Antibiofilmogram®), the bottoms of the microplates were cut out and assembled with a glass slide in order to be able to proceed to the observation under confocal microscopy. The observation conditions were as follows: Objective: ×40; Zoom: ×2; Format: 2048×2048 pixels; Laser power; Zmax and Zmin: number of images in the stack; Size between each image: 0.42 μm. “Live/Dead” staining was performed. SYTO9 stains live (and dead) bacteria, while propidium iodide specifically stains dead bacteria. The result was obtained with an analysis of 2880 images (“Slices”).
The percentage of biofilm covering the bottom surface of the well bottom as a percentage of surface cover is shown on the vertical axis. In FIG. 2A, the density of S14 bacteria adhered to the bottom of the wells was shown and analyzed. […] In particular, from 10% to more than 20% of the bottom surface of the well was covered after 4 h of incubation, which is excessive to consider a use in a therapeutic treatment at this dose.

[4] = system: clinical strains of Staphylococcus aureus; assay: MIC of cloxacillin by growth (absorbance) in 96-well microplates, Mueller-Hinton medium; assay type: cell-based; conditions: for MIC: Staphylococcus aureus, read-out: MH MIC
Experimental: The determination of each minimum inhibitory concentration (MIC) of cloxacillin was measured conventionally by measuring the growth of each strain in 96-well microplates in the presence of concentrations of antibiotic by absorbance.
The MIC was measured in Mueller-Hinton medium (MH; reference medium for antibiotic susceptibility testing) and brain heart infusion (BHI) medium.

Structure (SMILES): Cc1onc(-c2ccccc2Cl)c1C(=O)N[C@@H]1C(=O)N2[C@@H]1SC(C)(C)[C@@H]2C(=O)O [cloxacillin]
- wound-healing score ([1]; infected wounds, strain S14, MIC dose (3 mg/kg)): absence of cloxacillin effect on wound healing
- wound-healing score ([1]; infected wounds, strain S14, MICb dose (15 mg/kg), up to day 6): decreases more rapidly
- decrease of bacterial load at the wound site vs control ([1]; strain S14, MICb dose (15 mg/kg), 12 h post-infection): ~3 logio
- wound-healing score ([1]; uninfected wounds): does not have a per se effect on wound healing
- bacteria attached to the implanted catheter (log CFU/g catheter) vs control ([2]; strain S14, MIC dose (5 mg/kg pre-infection, then 3 mg/kg every 2 h for 10 h, intraperitoneal)): ineffectiveness
- bacteria attached to the implanted catheter (log CFU/g catheter) vs control ([2]; strain S14, MICb dose (30 mg/kg pre-infection, then 15 mg/kg every 2 h for 10 h, intraperitoneal)): statistically significant difference from control (***)
- bacteria attached to the implanted catheter (log CFU/g catheter) vs control ([2]; strain S39, MIC dose (7 mg/kg pre-infection, then 4 mg/kg every 2 h for 10 h, intraperitoneal)): ineffectiveness
- bacteria attached to the implanted catheter (log CFU/g catheter) vs control ([2]; strain S39, MICb dose (45 mg/kg pre-infection, then 25 mg/kg every 2 h for 10 h, intraperitoneal)): statistically significant difference from control (***)
- effect on adhesion / biofilm formation ([3]; strain S14, MIC dose (0.25 μg/mL)): allows a decrease in bacterial adhesion but does not inhibit it; also recorded: did not inhibit the adhesion
- bottom surface of the well covered by bacteria ([3]; strain S14, MIC dose (0.25 μg/mL), 4 h incubation): 10%
- effect on adhesion / biofilm formation ([3]; strain S14, MICb dose (2 μg/mL)): completely inhibit the adhesion
- effect on adhesion / biofilm formation ([3]; strain S14, sub-MIC dose (0.125 μg/mL, 0.5 MIC)): no effect on biofilm formation; also recorded: did not inhibit the adhesion
- effect on adhesion / biofilm formation ([3]; strain S14, sub-MICb dose (1 μg/mL)): completely inhibit the adhesion
- effect on bacterial adhesion ([3]; MIC dose (0.125 μg/mL)): no effect on bacterial adhesion
- effect on bacterial adhesion ([3]; MICb dose (6 μg/mL)): completely inhibit the adhesion
- effect on bacterial adhesion ([3]; sub-MIC dose (1/2 MIC)): no effect on bacterial adhesion
- effect on bacterial adhesion ([3]; sub-MICb dose (3 μg/mL)): completely inhibit the adhesion
- MIC ([4]; strain S02): 0.125 µg/mL
- MIC ([4]; strain S04): 0.25 µg/mL
- MIC ([4]; strain S08): 0.25 µg/mL
- MIC ([4]; strain S11): 0.5 µg/mL
- MIC ([4]; strain S14): 0.25 µg/mL
- MIC ([4]; strain S16): 0.25 µg/mL
- MIC ([4]; strain S19): 0.5 µg/mL
- MIC ([4]; strain S21): 0.25 µg/mL
- MIC ([4]; strain S22): 0.5 µg/mL
- MIC ([4]; strain S26): 0.25 µg/mL
- MIC ([4]; strain S27): 0.25 µg/mL
- MIC ([4]; strain S31): 0.25 µg/mL
- MIC ([4]; strain S34): 0.5 µg/mL
- MIC ([4]; strain S38): 0.5 µg/mL
- MIC ([4]; strain S39): 0.5 µg/mL
- MIC ([4]; strain S40): 0.5 µg/mL
- MIC ([4]; strain S43): 0.25 µg/mL
- MIC ([4]; strain S44): 0.25 µg/mL
- MIC ([4]; strain S46): 0.25 µg/mL
- MIC ([4]; strain S47): 0.25 µg/mL
- MIC ([4]; strain S51): 0.25 µg/mL
- MIC ([4]; strain S58): 0.25 µg/mL
- MIC ([4]; strain S62): 0.25 µg/mL
- MIC ([4]; strain S63): 0.25 µg/mL
- MIC ([4]; strain S74): 0.25 µg/mL
- MIC ([4]; strain S83): 0.125 µg/mL
- MH MIC ([4]; strain S02): 0.125 µg/mL
- MH MIC ([4]; strain S38): 0.5 µg/mL
- MH MIC ([4]; strain S58): 0.25 µg/mL
- MH MIC ([4]; strain S83): 0.125 µg/mL
